Experimental findings from patent US20260285860A1, “INHIBITORS OF cGAS AND USES THEREOF” (The Trustees of Columbia University in the City of New York, priority 2023, published 2026) are described below.

One experiment relates to HCC44. Put plainly: Treatment of HCC44 with cGAS inhibitor, STING signaling in response to cGAMP stimulation. In kind it is cell-based, human. The settings on record: HCC44 cells. The text has this:
Suppression of CIN or cGAS activity restores immunogenic potential of LKB1-deficient NSCLC. In experiments, relief of tonic STING activation via cGAMP could be removed by genetically deleting cGAS. Treatment of HCC44 with a commercially available human-selective cGAS inhibitor (G150) restored STING protein levels and enhanced pTBK1 and pIRF3 in response to cGAMP stimulation, thus, phenocopying genetic cGAS deletion experiments.

Another experiment concerns macrophages. Put plainly: Macrophage polarization assays with conditioned media from MSA-2-treated cancer cells. Type of experiment: cell-based. How it is done:
(§1) Given mounting evidence on reprograming of macrophages by STING agonists, macrophage polarization assays were carried out. […] Finally, KL, 4T1, and EO771.1mb were inoculated subcutaneously (KL) or orthotopically (4T1 and EO771.1mb) to evaluate the efficacy of RU.521 and MSA-2 combination treatment. Animals were pre-treated with RU.521 to ensure sufficient drug exposure by the time the first MSA-2 dose was administrated and continued RU.521 throughout the treatment course. Animals were treated with MSA-2 when tumors reached ~100 mm3.

Experiment [1] relates to KL, 4T1, CT26, B16F10 and E0771.1mb tumors. The experiment can be described thus: MSA-2 treatment of transplanted wild type or Cgas KO tumors. In kind it is in vivo. The text has this:
To test if loss of tumor cell cGAS activity would sensitize otherwise resistant chromosomally unstable tumors to STING agonists, wild type or Cgas KO cells […] biweekly with MSA-2.

The test system of experiment [2] is KL, 4T1, and EO771.1mb tumors. Put plainly: RU.521 and MSA-2 combination treatment of KL, 4T1 and EO771.1mb tumors in animals. To be noted: KL (subcutaneous), 4T1 and EO771.1mb (orthotopic); agent alone. Type of experiment: in vivo. How it is done: as §1
The mark [3] stands for this setting: Cgas KO tumors, KL, 4T1, CT26, B16F10, MSA-2 biweekly.

Each structure is given as a SMILES string.

Turning to `Nc1ccc(-c2cc(Cl)c(Cl)c3[nH]c4c(c23)CN(C(=O)CO)CC4)cn1` [G150], the STING protein levels entry with HCC44 is “restored”. Besides, in the experiment with HCC44 (cGAMP stimulation), the “pIRF3 in response to cGAMP stimulation” value is on record as “enhanced” and the “pTBK1 in response to cGAMP stimulation” value is listed as “enhanced”.

As to `COc1cc2cc(C(=O)CCC(=O)O)sc2cc1OC` [MSA-2], the “Arginase 1 (M2-like marker) in macrophages” value with macrophages (conditioned media from KL, 4T1, CT26 and B16F10 cells treated with MSA-2, with inhibition of cGAS in cancer cells) is “reductions of Arginase 1”. For the same compound, the “iNOS (M1-like marker) in macrophages” value with macrophages (conditioned media from MSA-2-treated Cgas KO cells versus wildtype MSA-2-treated cancer cells) was “robust increase in iNOS”. Besides, the “survival of treated animals” value in experiment [1] (setting [3]) is on record as “extending the survival”. For the same compound, the tumor growth result is recorded as “significantly slowed the growth” in experiment [1] (setting [3]); “grew slightly slower” in experiment [1] (E0771.1mb tumors, both cGAS proficient and deficient). In experiment [1] (E0771.1mb Cgas KO tumors), the survival of animals result was “prolonged survival”. The “tumor growth and survival benefit” value in experiment [1] (wildtype tumors) is given as “comparatively minimal effect”. Besides, the “tumor growth, single agent” value in experiment [2] is listed as “did not significantly hinder tumor growth”.
